Source: the Deep4Chem optical property database

Test: solvent given as SMILES

In the case of `CCN(CC)c1ccc(/N=N/c2nc3ccc([N+](=O)[O-])cc3s2)cc1`, the absorption maximum (in CC#N) is reported as 546 nm and the absorption maximum (in ClCCl) is reported as 549 nm.
With `F[B-]1(F)n2c(c3ccccc3c2-c2ccccc2)C(c2ccccc2)=C2c3ccccc3C(c3ccccc3)=[N+]21` the absorption maximum (in ClCCl) was 631 nm.
`C(#Cc1ccc(-n2c3ccccc3c3ccccc32)cc1)c1ccc(-c2nc(-c3ccc(C#Cc4ccc(-n5c6ccccc6c6ccccc65)cc4)cc3)nc(-c3ccc(C#Cc4ccc(-n5c6ccccc6c6ccccc65)cc4)cc3)n2)cc1` showed an absorption maximum (in ClCCl) of 361 nm.
For `CN1/C(=C/C=C(/C=C/C2=[N+](C)c3ccccc3C2(C)C)c2ccccc2)C(C)(C)c2ccccc21`, the absorption maximum (in CCO) was 640 nm, the absorption maximum (in CO) was 637 nm and the absorption maximum (in CS(C)=O) was 645 nm. For the same compound, the absorption maximum (in O) was 634 nm.
`CN1c2cc3nc4cc(Cl)c(Cl)cc4nc3cc2N(C)C1(C)C` gave an absorption maximum (in CCO) of 471 nm.
For `CCCCCCc1ccsc1-c1ccc2c(c1)C1=[N+]3C2=Cc2c4ccc(-c5sccc5CCCCCC)cc4c4n2[B-]3(Oc2ccccc21)Oc1ccccc1-4` (stereo not drawn), the absorption maximum (in C1CCOC1) was 733 nm.
`C#CCOc1ccc(/C=C/C2=[N+]3C(=C(c4ccc(N(CC)CC)cc4)c4c(C)cc(C)n4[B-]3(F)F)C(C)=C2)cc1` showed an absorption maximum (in CO) of 568 nm.
Work on `CC1=[N+]2C(=C(c3c4ccccc4c(-c4ccccc4)c4ccccc34)c3ccc(C)n3[B-]2(F)F)C=C1` yielded an absorption maximum (in CC#N) of 514 nm, an absorption maximum (in CCCCCC) of 516 nm and an absorption maximum (in CCO) of 516 nm. The absorption maximum (in CN(C)C=O) was 517 nm, the absorption maximum (in Cc1ccccc1) was 519 nm and the absorption maximum (in ClCCl) was 518 nm.
`COc1ccc(N(c2ccccc2)c2ccc3ccc4c(N(c5ccccc5)c5ccc(OC)cc5)ccc5ccc2c3c54)cc1` showed an absorption maximum (in ClCCl) of 432 nm.
For `CC1(C)c2ccccc2N(c2ccc(-c3nc(-c4ccccn4)n(-c4ccccc4)n3)cc2)c2ccccc21`, the absorption maximum (in ClCCl) was 342 nm.
With `C[Si]1(C)c2cc(-c3cccs3)ccc2C=Cc2ccc(-c3cccs3)cc21` the absorption maximum (in ClCCl) was 408 nm.
For `Cc1c(COC(=O)c2ccc(I)cc2)n2c(OCC(=O)c3ccc(I)cc3)c(C)c(=O)n2c1=O`, the absorption maximum (in CCO) was 387 nm.
For `CC1(C)CCc2c(c3ccccc3c3nc4c(nc23)c2c(c3ccccc34)OC(C)(C)CC2)O1`, the absorption maximum (in C1CCCCC1) was 431.03 nm, the absorption maximum (in C1COCCO1) was 434.97 nm and the absorption maximum (in CC#N) was 434.97 nm. It also gave an absorption maximum (in CC(C)O) of 431.97 nm, an absorption maximum (in CCCCCC) of 429.92 nm and an absorption maximum (in ClC(Cl)Cl) of 437.06 nm. The absorption maximum (in c1ccccc1) was 434.97 nm.
In the case of `c1ccc(-c2nc(-c3ccc(N4c5ccccc5C(c5ccccc5)(c5ccccc5)c5ccccc54)cc3)cc(-c3ccccn3)n2)cc1`, the absorption maximum (in Cc1ccccc1) is reported as 371.33 nm.
For `c1ccc(-n2c(-c3ccc(-c4ccc(-c5ccc(-c6nc7c8ccccc8c8ccccc8c7n6-c6ccccc6)cc5)cc4)cc3)nc3ccccc32)cc1`, the absorption maximum (in C1CCOC1) was 341 nm, the absorption maximum (in C1COCCO1) was 344 nm and the absorption maximum (in CC#N) was 337 nm. For the same compound, the absorption maximum (in CCCCCC) was 341 nm, the absorption maximum (in CCCCOCCCC) was 340 nm and the absorption maximum (in CCN(CC)CC) was 341 nm. For the same compound, the absorption maximum (in CCOC(C)=O) was 339 nm, the absorption maximum (in CCOCC) was 340 nm and the absorption maximum (in CN(C)C=O) was 342 nm. For the same compound, the absorption maximum (in Cc1ccccc1) was 345 nm, the absorption maximum (in ClC(Cl)Cl) was 340 nm and the absorption maximum (in ClC=C(Cl)Cl) was 343 nm. It also gave an absorption maximum (in ClCCl) of 340 nm.
Work on `Cc1ccc2ccccc2c1` yielded an absorption maximum (in C1CCCCC1) of 303.77 nm.
In the case of `CCO[B-]1(OCC)n2c(C)cc(C)c2C(c2ccc(I)cc2)=C2C(C)=CC(C)=[N+]21`, the absorption maximum (in ClC(Cl)Cl) is reported as 505 nm.
For `CC(C)n1c(=O)c2cc3ccc4cccc5ccc(c2c1=O)c3c45`, the absorption maximum (in ClC(Cl)Cl) was 427 nm.
`COc1c2ccccc2c(OC)c2c1c1ccc(C)cc1n2C` gave an absorption maximum (in C1CCCCC1) of 402 nm, an absorption maximum (in CC#N) of 404 nm and an absorption maximum (in CO) of 401 nm. For the same compound, the absorption maximum (in ClCCl) was 405 nm.
In the case of `C=CCN(CC=C)c1ccc(-c2cc(-c3ccc(N(CC=C)CC=C)cc3)cc(-c3ccc(N(CC=C)CC=C)cc3)c2)cc1`, the absorption maximum (in ClCCl) is reported as 315.85 nm.
`CC(=O)[B-]1(C(C)=O)OC(c2ccccc2)=CC(c2ccccc2)=[O+]1` gave an absorption maximum (in CC#N) of 377 nm and an absorption maximum (in ClC(Cl)(Cl)Cl) of 382 nm.
Compound `Cc1cc(-n2c3ccccc3c3cc4c(cc32)C2c3ccccc3C4c3ccccc32)c(C)cc1-c1nc(-c2ccccc2)nc(-c2ccccc2)n1` has an absorption maximum (in Cc1ccccc1) of 345 nm.
